Structures are written as SMILES. pIC50: −log10 of the molar value.

Chain of HIS-TGFβR1 T204D (P36897 34-503 T204D): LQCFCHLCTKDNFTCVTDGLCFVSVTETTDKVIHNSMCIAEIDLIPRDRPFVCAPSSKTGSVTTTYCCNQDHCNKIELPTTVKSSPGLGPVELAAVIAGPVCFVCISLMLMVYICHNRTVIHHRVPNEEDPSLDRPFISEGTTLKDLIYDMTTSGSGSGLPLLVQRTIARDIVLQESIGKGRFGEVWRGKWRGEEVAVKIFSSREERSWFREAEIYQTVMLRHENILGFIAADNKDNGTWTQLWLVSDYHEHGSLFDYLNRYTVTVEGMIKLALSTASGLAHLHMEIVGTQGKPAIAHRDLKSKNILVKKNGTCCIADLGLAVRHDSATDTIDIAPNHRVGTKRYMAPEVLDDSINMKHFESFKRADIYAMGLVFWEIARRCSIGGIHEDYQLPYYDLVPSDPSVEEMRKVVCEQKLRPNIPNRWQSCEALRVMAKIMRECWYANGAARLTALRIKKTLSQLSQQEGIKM

The test concerns the target HIS-TGFβR1 T204D (Homo sapiens (Human), UniProt P36897, T204D). Kind of test: HTRF probe-displacement assay, HIS-TGFβR1 T204D. In kind it is binding. The following applies: 1 hour at room temperature. For orientation: In TR-FRET formats the signal depends on donor and acceptor labels being close together.
The pIC50 is the negative decadic logarithm of the IC50, by convention in mol/L. `Fc1cnccc1Nc1nc(-c2cccc(C(F)(F)F)n2)nn2cccc12` [Example 84, 3-fluoro-N-{2-[6-(trifluoromethyl)pyridin-2-yl]pyrrolo[2,1-f][1,2,4]triazin-4-yl}pyridin-4-amine] showed a negative-log IC50 (pIC50) of 8.43.

As for `FC(F)(F)c1cccc(-c2nc(Nc3ccncc3Cl)c3cccn3n2)n1` [Example 86, 3-chloro-N-{2-[6-(trifluoromethyl)pyridin-2-yl]pyrrolo[2,1-f][1,2,4]triazin-4-yl}pyridin-4-amine], the pIC50 is 8.72.

Take `Cc1csc(-c2nc(Nc3ccncc3Cl)c3cccn3n2)n1` [Example 87, 3-chloro-N-[2-(4-methyl-1,3-thiazol-2-yl)pyrrolo[2,1-f][1,2,4]triazin-4-yl]pyridin-4-amine]: the negative-log IC50 (pIC50) was 9.04.

On to `Cc1csc(-c2nc(Nc3ccncc3)c3cccn3n2)n1` [Example 88, N-[2-(4-methyl-1,3-thiazol-2-yl)pyrrolo[2,1-f][1,2,4]triazin-4-yl]pyridin-4-amine], for which the pIC50 was 8.82.

In the case of `Fc1cnccc1Nc1nc(-c2ccc[nH]2)nn2cccc12` [Example 89, 3-fluoro-N-[2-(1H-pyrrol-2-yl)pyrrolo[2,1-f][1,2,4]triazin-4-yl]pyridin-4-amine], the pIC50 is 6.72.

Compound `CS(=O)(=O)Nc1cccc(-c2nc(Nc3ccncc3Cl)c3cccn3n2)n1` [Example 90, N-(6-{4-[(3-chloropyridin-4-yl)amino]pyrrolo[2,1-f][1,2,4]triazin-2-yl}pyridin-2-yl)methanesulfonamide] gave a pIC50 of 8.06.

With `COc1cccc(-c2nc(Nc3ccncc3)c3c(Cl)ccn3n2)n1` [Example 91, N-[5-chloro-2-(6-methoxypyridin-2-yl)pyrrolo[2,1-f][1,2,4]triazin-4-yl]pyridin-4-amine], the pIC50 was 7.31.

On to `COc1cccc(-c2nc(Nc3ccnc(C)c3)c3cccn3n2)n1` [Example 92, N-[2-(6-methoxypyridin-2-yl)pyrrolo[2,1-f][1,2,4]triazin-4-yl]-2-methylpyridin-4-amine], for which the pIC50 was 5.82.

The compound `COc1cccc(-c2nc(Nc3ccnc(Cl)c3)c3cccn3n2)n1` [Example 93, 2-chloro-N-[2-(6-methoxypyridin-2-yl)pyrrolo[2,1-f][1,2,4]triazin-4-yl]pyridin-4-amine] gave a pIC50 of 5.18.

`COc1cccc(-c2nc(Nc3ccnc(F)c3)c3cccn3n2)n1` [Example 94, 2-fluoro-N-[2-(6-methoxypyridin-2-yl)pyrrolo[2,1-f][1,2,4]triazin-4-yl]pyridin-4-amine] had a pIC50 of 6.20.

Turning to `COc1cccc(-c2nc(Nc3ccncc3N)c3cccn3n2)n1` [Example 95, 4-N-[2-(6-methoxypyridin-2-yl)pyrrolo[2,1-f][1,2,4]triazin-4-yl]pyridine-3,4-diamine], the negative-log IC50 (pIC50) is 7.70.

The compound `COc1cccc(-c2nc(Nc3ccnc(F)c3)c3c(C)ccn3n2)n1` [Example 96, 2-fluoro-N-[2-(6-methoxypyridin-2-yl)-5-methylpyrrolo[2,1-f][1,2,4]triazin-4-yl]pyridin-4-amine] showed a negative logarithm of the IC50 (pIC50) of 6.19.

`COc1cccc(-c2nc(Nc3ccnc(NC(C)=O)c3)c3cccn3n2)n1` [Example 97, N-(4-{[2-(6-methoxypyridin-2-yl)pyrrolo[2,1-f][1,2,4]triazin-4-yl]amino}pyridin-2-yl)acetamide]: the negative logarithm of the IC50 (pIC50) is 8.54.

Turning to `COc1cccc(-c2nc(Nc3ccncc3C(N)=O)c3cccn3n2)n1` [Example 98, 4-{[2-(6-methoxypyridin-2-yl)pyrrolo[2,1-f][1,2,4]triazin-4-yl]amino}pyridine-3-carboxamide], the negative-log IC50 (pIC50) is 8.04.

Compound `COc1cccc(-c2nc(Nc3ccnc(N4CCOCC4)c3)c3cccn3n2)n1` [Example 99, N-[2-(6-methoxypyridin-2-yl)pyrrolo[2,1-f][1,2,4]triazin-4-yl]-2-(morpholin-4-yl)pyridin-4-amine] had a pIC50 of 5.54.

Consider `Fc1cnccc1Nc1nc(-c2ccnc(C(F)(F)F)n2)nn2cccc12` [Example 100, 3-fluoro-N-{2-[2-(trifluoromethyl)pyrimidin-4-yl]pyrrolo[2,1-f][1,2,4]triazin-4-yl}pyridin-4-amine], for which the negative logarithm of the IC50 (pIC50) was 7.82.

`COc1nccc(-c2nc(Nc3ccncc3F)c3cccn3n2)n1` [Example 101, 3-fluoro-N-[2-(2-methoxypyrimidin-4-yl)pyrrolo[2,1-f][1,2,4]triazin-4-yl]pyridin-4-amine] showed a pIC50 of 6.28.

`CCOc1cccc(-c2nc(Nc3ccncc3F)c3cccn3n2)n1` [Example 102, N-[2-(6-ethoxypyridin-2-yl)pyrrolo[2,1-f][1,2,4]triazin-4-yl]-3-fluoropyridin-4-amine] gave a negative logarithm of the IC50 (pIC50) of 7.82.

`COc1cccc(-c2nc(Nc3ccncc3F)c3cc(N)cn3n2)n1` [Example 103, 4-N-(3-fluoropyridin-4-yl)-2-(6-methoxypyridin-2-yl)pyrrolo[2,1-f][1,2,4]triazine-4,6-diamine] had a pIC50 of 6.85.

`COc1cccc(-c2nc(Nc3ccncc3F)c3cc(NC(C)=O)cn3n2)n1` [Example 104, N-{4-[(3-fluoropyridin-4-yl)amino]-2-(6-methoxypyridin-2-yl)pyrrolo[2,1-f][1,2,4]triazin-6-yl}acetamide] showed a negative logarithm of the IC50 (pIC50) of 7.07.

In turn, `COc1cccc(-c2nc(Nc3ccncc3F)c3cc(NC(=O)N4CCOCC4)cn3n2)n1` [Example 105, N-{4-[(3-fluoropyridin-4-yl)amino]-2-(6-methoxypyridin-2-yl)pyrrolo[2,1-f][1,2,4]triazin-6-yl}morpholine-4-carboxamide] showed a pIC50 of 6.16.

The compound `COc1cccc(-c2nc(Nc3ccncc3F)c3cc(NC(=O)CN4CCOCC4)cn3n2)n1` [Example 106, N-{4-[(3-fluoropyridin-4-yl)amino]-2-(6-methoxypyridin-2-yl)pyrrolo[2,1-f][1,2,4]triazin-6-yl}-2-(morpholin-4-yl)acetamide] had a pIC50 of 5.85.

Regarding `COc1cccc(-c2nc(Nc3ccncc3F)c3cc(NS(=O)(=O)C4CC4)cn3n2)n1` [Example 107, N-{4-[(3-fluoropyridin-4-yl)amino]-2-(6-methoxypyridin-2-yl)pyrrolo[2,1-f][1,2,4]triazin-6-yl}cyclopropanesulfonamide], the pIC50 was 7.09.

`COc1cccc(-c2nc(Nc3ccncc3F)c3cc(NC(=O)CNC(=O)OC(C)(C)C)cn3n2)n1` [Example 108, tert-butyl N-[({4-[(3-fluoropyridin-4-yl)amino]-2-(6-methoxypyridin-2-yl)pyrrolo[2,1-f][1,2,4]triazin-6-yl}carbamoyl)methyl]carbamate] gave a negative logarithm of the IC50 (pIC50) of 6.48.

For the compound `COc1cccc(-c2nc(Nc3ccncc3F)c3cc(NC(=O)CN)cn3n2)n1` [Example 109, 2-amino-N-{4-[(3-fluoropyridin-4-yl)amino]-2-(6-methoxypyridin-2-yl)pyrrolo[2,1-f][1,2,4]triazin-6-yl}acetamide], the pIC50 is 5.80.

`COc1cccc(-c2nc(Nc3ccncc3F)c3cc(NC(=O)CNS(C)(=O)=O)cn3n2)n1` [Example 110, N-{4-[(3-fluoropyridin-4-yl)amino]-2-(6-methoxypyridin-2-yl)pyrrolo[2,1-f][1,2,4]triazin-6-yl}-2-methanesulfonamidoacetamide]: the negative-log IC50 (pIC50) was 6.89.

As for `CS(=O)(=O)N(c1cc2c(Nc3ccncc3F)nc(-c3cccc(C(F)(F)F)n3)nn2c1)S(C)(=O)=O` [Example 111, N-{4-[(3-fluoropyridin-4-yl)amino]-2-[6-(trifluoromethyl)pyridin-2-yl]pyrrolo[2,1-f][1,2,4]triazin-6-yl}-N-methanesulfonylmethanesulfonamide], the negative logarithm of the IC50 (pIC50) was 7.28.

Compound `COc1cccc(-c2nc(Nc3ccncc3F)c3c(CCN4CCN(C)CC4)ccn3n2)n1` [Example 112, 3-fluoro-N-[2-(6-methoxypyridin-2-yl)-5-[2-(4-methylpiperazin-1-yl)ethyl]pyrrolo[2,1-f][1,2,4]triazin-4-yl]pyridin-4-amine] gave a pIC50 of 6.44.

`COc1cccc(-c2nc(Nc3ccncc3F)c3c(CCN4CCOCC4)ccn3n2)n1` [Example 113, 3-fluoro-N-[2-(6-methoxypyridin-2-yl)-5-[2-(morpholin-4-yl)ethyl]pyrrolo[2,1-f][1,2,4]triazin-4-yl]pyridin-4-amine]: the negative logarithm of the IC50 (pIC50) is 6.92.

`COc1cccc(-c2nc(Nc3ccncc3F)c3c(CCN4CCC(N)CC4)ccn3n2)n1` [Example 114, N-{5-[2-(4-aminopiperidin-1-yl)ethyl]-2-(6-methoxypyridin-2-yl)pyrrolo[2,1-f][1,2,4]triazin-4-yl}-3-fluoropyridin-4-amine] showed a pIC50 of 6.59.

Compound `CN1CCN(Cc2ccn3nc(-c4cccc(C(F)F)n4)nc(Nc4ccncc4F)c23)CC1` [Example 115, N-{2-[6-(difluoromethyl)pyridin-2-yl]-5-[(4-methylpiperazin-1-yl)methyl]pyrrolo[2,1-f][1,2,4]triazin-4-yl}-3-fluoropyridin-4-amine] showed a pIC50 of 8.24.

As to `CC(C)(O)CNCc1ccn2nc(-c3cccc(C(F)F)n3)nc(Nc3ccncc3F)c12` [Example 116, 1-[({2-[6-(difluoromethyl)pyridin-2-yl]-4-[(3-fluoropyridin-4-yl)amino]pyrrolo[2,1-f][1,2,4]triazin-5-yl}methyl)amino]-2-methylpropan-2-ol], the negative-log IC50 (pIC50) is 8.64.

Compound `CC(=O)Nc1cc(Nc2nc(-c3ccccn3)nn3ccc(CNCC(C)(C)O)c23)ccn1` [Example 117, N-{4-[(5-{[(2-hydroxy-2-methylpropyl)amino]methyl}-2-(pyridin-2-yl)pyrrolo[2,1-f][1,2,4]triazin-4-yl)amino]pyridin-2-yl}acetamide] showed a pIC50 of 9.07.

On to `COc1cccc(-c2nc(Nc3ccncc3F)c3c(CNCC(C)(C)O)ccn3n2)n1` [Example 118, 1-[({4-[(3-fluoropyridin-4-yl)amino]-2-(6-methoxypyridin-2-yl)pyrrolo[2,1-f][1,2,4]triazin-5-yl}methyl)amino]-2-methylpropan-2-ol], for which the pIC50 was 8.01.

`COc1cccc(-c2nc(Nc3ccncc3F)c3c(CNCCN4CCCC4)ccn3n2)n1` [Example 119, 3-fluoro-N-[2-(6-methoxypyridin-2-yl)-5-({[2-(pyrrolidin-1-yl)ethyl]amino}methyl)pyrrolo[2,1-f][1,2,4]triazin-4-yl]pyridin-4-amine] gave a negative logarithm of the IC50 (pIC50) of 7.20.

Source of the values: US10336761B2, “TGFβ receptor antagonist” (BRISTOL-MYERS SQUIBB COMPANY, priority 2015, dated 2019).
